According to patent US20010039287A1, “AROMATIC SULFONE HYDROXAMIC ACID METALLOPROTEASE INHIBITOR” (priority 1997, published 2001):
Where a name gives a salt, the structure may show the parent alone. Read-outs that look alike come from different tables or passages of the source.

Legend:
Experiment in all cases: biochemical
recombinant human MMP-1 = molecular target: T1, recombinant human MMP-1 (Homo sapiens, UniProt P03956); conditions: read-out: MMP-1 IC50
T1 construct: made in house; host or cells: transfected HT-1080 cells (provided by Dr. Harold Welgus, Washington University)
T1 sequence (P03956 100-469): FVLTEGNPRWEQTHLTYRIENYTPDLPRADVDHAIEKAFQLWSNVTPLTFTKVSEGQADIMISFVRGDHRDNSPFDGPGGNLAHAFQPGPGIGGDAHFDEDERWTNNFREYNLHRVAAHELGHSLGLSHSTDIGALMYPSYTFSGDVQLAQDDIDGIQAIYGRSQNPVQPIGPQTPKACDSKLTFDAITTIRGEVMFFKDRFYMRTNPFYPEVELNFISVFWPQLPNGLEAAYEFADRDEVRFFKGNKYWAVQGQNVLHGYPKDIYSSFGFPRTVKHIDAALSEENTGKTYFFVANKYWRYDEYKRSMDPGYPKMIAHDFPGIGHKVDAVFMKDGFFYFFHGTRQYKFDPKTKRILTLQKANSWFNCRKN

recombinant human MMP-2 = molecular target: T2, recombinant human MMP-2 (Homo sapiens, UniProt P08253)
T2 sequence (P08253 110-660): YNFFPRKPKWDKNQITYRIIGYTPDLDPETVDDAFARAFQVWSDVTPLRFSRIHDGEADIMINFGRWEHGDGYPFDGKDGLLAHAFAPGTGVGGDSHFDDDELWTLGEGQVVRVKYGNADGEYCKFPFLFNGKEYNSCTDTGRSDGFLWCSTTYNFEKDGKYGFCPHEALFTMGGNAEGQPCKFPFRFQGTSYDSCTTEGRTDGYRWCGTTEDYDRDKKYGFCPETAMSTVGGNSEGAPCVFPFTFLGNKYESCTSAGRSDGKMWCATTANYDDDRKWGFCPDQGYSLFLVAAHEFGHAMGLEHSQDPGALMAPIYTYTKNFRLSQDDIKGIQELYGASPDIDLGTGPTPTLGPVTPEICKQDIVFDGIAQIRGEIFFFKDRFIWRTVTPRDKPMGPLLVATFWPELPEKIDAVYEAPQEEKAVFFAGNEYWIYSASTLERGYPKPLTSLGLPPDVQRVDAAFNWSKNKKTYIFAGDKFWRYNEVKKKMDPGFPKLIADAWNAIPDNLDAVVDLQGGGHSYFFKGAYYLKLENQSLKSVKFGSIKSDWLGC

recombinant human MMP-13 = recombinant human MMP-13 (Homo sapiens, UniProt P45452)
[1] = Inhibition Table B, read-out: MMP-2 IC50
[2] = Inhibition Table B, read-out: MMP-13 IC50
[3] = Inhibition Table A, read-out: MMP-2 IC50
[4] = Inhibition Table A, read-out: MMP-13 IC50

Compound | IC50 (recombinant human MMP-1; Inhibition Table B) | IC50 (recombinant human MMP-2; [1]) | IC50 (recombinant human MMP-13; [2]) | also measured
O=C(NO)C1(S(=O)(=O)c2ccc(Oc3ccc(I)cc3)cc2)CCOCC1 [Example 57, Tetrahydro-N-hydroxy-4-[[4-(4-iodophenoxy)phenyl]sulfonyl]-2H-pyran-4-carboxamide] | 1.2 µM | < 0.1 nM | 0.2 nM | –
O=C(C1CCc2ccccc2C1)N1CCN(c2ccc(S(=O)(=O)C3(C(=O)NO)CCOCC3)cc2)CC1 (centres unmarked) [Example 201] | > 10 µM | 22.4 nM | 13.6 nM | –
CS(=O)(=O)N1CCC(C(=O)NO)(S(=O)(=O)c2ccc(Oc3ccccc3)cc2)CC1 [Example 18] | – | – | – | IC50 (recombinant human MMP-1; Inhibition Table A): 0.8 µM; IC50 (recombinant human MMP-2; MMP-2 IC50 (nM)): 0.3 nM; IC50 (recombinant human MMP-13): 0.5 nM
O=C(NO)C1(S(=O)(=O)c2ccc(Sc3ccccc3)cc2)CC[S+]([O-])CC1 (centres unmarked) [Example 113] | > 10 µM | 0.9 nM | 4 nM | –
O=C(NO)C1(S(=O)(=O)c2ccc(Oc3ccc(Cl)c(F)c3)cc2)CCOCC1 [Example 122, 4-[[4-(4-chloro-3-fluorophenoxy)phenyl]sulfonyl]-tetrahydro-N-hydroxy-2H-pyran-4-carboxamide] | 0.6 µM | 0.1 nM | 0.15 nM | –
O=C(NO)C1(S(=O)(=O)c2ccc(Oc3ccc(OCc4ccccc4)cc3)cc2)CCOCC1 [Example 72, tetrahydro-N-hydroxy-4-[[4-[4-[(phenylmethyl)oxy]phenoxy]-phenyl]-sulfonyl]-2H-pyran-4-carboxamide] | 2.1 µM | < 0.1 nM | 0.3 nM | –
O=C(NCc1ccc(F)cc1)C1CCN(c2ccc(S(=O)(=O)C3(C(=O)NO)CCOCC3)cc2)CC1 [Example 197] | 7 µM | 145 nM | 8 nM | –
COC(=O)CCc1ccc(Oc2ccc(S(=O)(=O)C3(C(=O)NO)CCOCC3)cc2)cc1 [Example 102, methyl 4-[4-[(tetrahydro-4-[(hydroxyamino)carbonyl]-2H-pyran-4-yl]sulfonyl]-phenoxy]benzenepropanoate] | 2 µM | < 0.1 nM | 0.2 nM | –
C=CCN1CCC(C(=O)NO)(S(=O)(=O)c2ccc(Sc3ccccc3)cc2)CC1 [Example 28] | – | – | – | IC50 (recombinant human MMP-1; Inhibition Table A): 0.77 µM; IC50 (recombinant human MMP-2; [3]): < 0.1 nM; IC50 (recombinant human MMP-13; [4]): < 0.1 nM
Nc1cccc(-c2ccc(S(=O)(=O)C3(C(=O)NO)CCOCC3)cc2)c1 [Example 232] | < 0.1 µM | < 1 nM | < 1 nM | –
Cc1ccc(Oc2ccc(S(=O)(=O)C3(C(=O)NO)CCOCC3)cc2)cn1 [Example 97, Tetrahydro-N-hydroxy-4-[[4-[(6-methyl-3-pyridinyl)oxy]phenyl]-sulfonyl]-2H-pyran-4-carboxamide, Monohydrochloride] | 4 µM | 8.2 nM | 16.7 nM | –
CC(=O)N1CCC(Oc2ccc(S(=O)(=O)C3(C(=O)NO)CCOCC3)cc2)CC1 [Example 107, 4-[[4-[(1-acetyl-4-piperidinyl)oxy]phenyl]-sulfonyl]tetrahydro-N-hydroxy-2H-pyran-4-carboxamide] | > 10 µM | 12.1 nM | 6 nM | –
C#CCN1CCC(C(N)=O)(S(=O)(=O)c2ccc(Sc3ccccc3)cc2)CC1 [Example 445, 4-[(4-phenylthiophenyl)sulfonyl]-1-(2—propynyl)-4-piperidinecarboxamide] | > 10 µM | – | – | –
O=C(NO)C1(S(=O)(=O)c2ccc(N3CCN(c4ccccc4)CC3)cc2)CCOCC1 [Example 20] | – | – | – | IC50 (recombinant human MMP-1; Inhibition Table A): 10 µM; IC50 (recombinant human MMP-2; MMP-2 IC50 (nM)): 23.5 nM; IC50 (recombinant human MMP-13; [4]): 1.7 nM
O=C(NO)C1(S(=O)(=O)c2ccc(-c3cccc(C(F)(F)F)c3)cc2)CCOCC1 [Example 219] | > 10 µM | < 1 nM | < 1 nM | –
O=C(CS(=O)(=O)c1ccc(NC(=O)c2ccccc2)cc1)NO [Example 7] | – | – | – | IC50 (recombinant human MMP-1; Inhibition Table A): > 10 µM; IC50 (recombinant human MMP-2; [3]): 1.8 nM
COCCN1CCC(C(N)=O)(S(=O)(=O)c2ccc(Oc3ccc(OC(F)(F)F)cc3)cc2)CC1 [Example 444, 1-(2-methoxyethyl)-4-[[4-[4-(trifluoromethoxy)phenoxy]phenyl]sulfonyl]-4-piperidinecarboxamide] | – | – | – | IC50 (recombinant human MMP-1): > 10 µM
Cc1cccc(Oc2ccc(S(=O)(=O)C3(C(=O)NO)CCOCC3)cc2)n1 [Example 98, Tetrahydro-N-hydroxy-4-[[4-[(6-methyl-2—pyridinyl)oxy]phenyl]-sulfonyl]-2H-pyran-4-carboxamide] | > 10 µM | 37 nM | 23.4 nM | –
O=C(NO)C1(S(=O)(=O)c2ccc(Oc3cc(F)c(F)cc3F)cc2)CCOCC1 [Example 58, Tetrahydro-N-hydroxy-4-[[4-(2,4,5-trifluorophenoxy)phenyl]-sulfonyl]-2H-pyran-4-carboxamide] | > 10 µM | 83 nM | 30 nM | –

Compound | IC50 (recombinant human MMP-1; Inhibition Table B) | IC50 (recombinant human MMP-2; [1]) | IC50 (recombinant human MMP-13; [2]) | also measured
C[C@@H]1CN(C(=O)C2CCCN(c3ccc(S(=O)(=O)C4(C(=O)NO)CCOCC4)cc3)C2)C[C@H](C)O1 (some centres unmarked) [Example 169] | 10 µM | – | – | –
O=C(CS(=O)(=O)c1ccc(NC(=O)OCc2ccccc2)cc1)NO [Example 74, phenylmethyl-[4-[[2-(hydroxyamino)-2-oxoethyl]-sulfonyl]-phenyl]carbamate] | > 10 µM | 130 nM | 480 nM | –
O=C(NO)C1(S(=O)(=O)c2ccc(OC3CCNCC3)cc2)CCOCC1 [Example 67, tetrahydro-N-hydroxy-4-[[4-(4-piperidinyloxy)phenyllsulfonyl]-2H-pyran-4-carboxamide, Monohydrochloride] | 1.6 µM | 239 nM | 268 nM | –
Nc1ccc(Sc2ccc(S(=O)(=O)C3(C(=O)NO)CCOCC3)cc2)cc1 [Example 120, 4-[[4-[(4-aminophenyl)thio]phenyl]-sulfonyl]tetrahydro-N-hydroxy-2H-pyran-4-carboxamide] | 4 µM | 0.4 nM | 0.4 nM | –
O=C(N1CCCCC1)N1CCN(c2ccc(S(=O)(=O)C3(C(=O)NO)CCOCC3)cc2)CC1 [Example 206] | > 10 µM | > 10 nM | 20 nM | –
O=C(CS(=O)(=O)c1ccc(NC(=O)Nc2ccccc2)cc1)NO [Example 75, N—hydroxy-2-[[4-[[(phenylamino)carbonyl]amino]-phenyl]sulfonyl]acetamide] | > 10 µM | 60 nM | 900 nM | –
CNC(=O)C1CCCN(c2ccc(S(=O)(=O)C3(C(=O)NO)CCOCC3)cc2)C1 (centres unmarked) [Example 139] | – | 1000 nM | – | –
O=C(C1CCCN(c2ccc(S(=O)(=O)C3(C(=O)NO)CCOCC3)cc2)C1)N1CCCC2CCCCC21 (centres unmarked) [Example 170] | 10 µM | – | – | –
CCOC(=O)N1CCN(c2ccc(S(=O)(=O)C3(C(=O)NO)CCOCC3)cc2)CC1 [Example 126] | 8 µM | 11.3 nM | 10 nM | –
O=C(NO)C1(S(=O)(=O)c2ccc(-c3ccc4ccccc4c3)cc2)CCOCC1 [Example 227] | > 10 µM | < 1 nM | < 1 nM | –
C[C@@H]1CN(C(=O)C2CCN(c3ccc(S(=O)(=O)C4(C(=O)NO)CCOCC4)cc3)CC2)C[C@H](C)O1 [Example 176] | > 10 µM | – | – | –
CN(c1ccccc1)c1ccc(S(=O)(=O)C2(C(=O)NO)CCNCC2)cc1 [Example 92, N-hydroxy-4-[[4-(methylphenylamino)phenyl]sulfonyl]-4-piperidinecarboxamide, Monohydrochloride] | > 10 µM | 1800 nM | 2430 nM | –
O=C(C1CCN(c2ccc(S(=O)(=O)C3(C(=O)NO)CCOCC3)cc2)CC1)N1CCCC1 [Example 179] | – | – | 100 nM | –
O=C(Nc1ccc(S(=O)(=O)C2(C(=O)NO)CCNCC2)cc1)c1ccccc1 [Example 8] | – | – | – | IC50 (recombinant human MMP-1; Inhibition Table A): > 10 µM; IC50 (recombinant human MMP-13; [4]): 24.1 nM
O=C(NC1CCCCCC1)C1CCN(c2ccc(S(=O)(=O)C3(C(=O)NO)CCOCC3)cc2)CC1 [Example 194] | 10 µM | – | – | –
CCCCNC(=O)C1CCN(c2ccc(S(=O)(=O)C3(C(=O)NO)CCOCC3)cc2)CC1 [Example 181] | 10 µM | – | – | –
N[C@H]1CCN(C(=O)C2CCN(c3ccc(S(=O)(=O)C4(C(=O)NO)CCOCC4)cc3)CC2)C1 [Example 175] | 10 µM | – | – | –
O=C(C1CCCN(c2ccc(S(=O)(=O)C3(C(=O)NO)CCOCC3)cc2)C1)N1CCOCC1 (centres unmarked) [Example 140] | – | 1000 nM | – | –
O=C(NCc1ccncc1)C1CCN(c2ccc(S(=O)(=O)C3(C(=O)NO)CCOCC3)cc2)CC1 [Example 195] | 10 µM | 100 nM | – | –
